ChEMBL document CHEMBL6071169, “Maydisens, Sesterterpenoids with Anti-MDR Activity from Bipolaris maydis” (J Nat Prod, 2024)
Active and inactive are the calls of the source. No cut-off for these calls is given here.

Experiments:
SW620/AD300 [1] = test: Cytotoxicity against human SW620/AD300 cells at 20 uM incubated for 72 hrs by CCK-8 method; type: functional, cell-based
MDA-MB-453 = test: Cytotoxicity against human MDA-MB-453 cells at 20 uM incubated for 72 hrs by CCK-8 method; type: functional, cell-based
LNCaP C4-2B = test: Cytotoxicity against human LNCaP C4-2B cells at 20 uM incubated for 72 hrs by CCK-8 method; type: functional, cell-based
A549 = test: Cytotoxicity against human A549 cells at 20 uM incubated for 72 hrs by CCK-8 method; type: functional, cell-based
SW620/AD300 [2] = test: Reversal of paclitaxel resistance in human SW620/AD300 cells assessed as reversal fold by measuring ratio of paclitaxel IC50 to paclitaxel IC50 in presence of test compound at 20 uM and measured after 72 hrs by CCK-8 method; type: functional
SW620/AD300 [3] = test: Reversal of paclitaxel resistance in human SW620/AD300 cells assessed as reduction in paclitaxel IC50 at 20 uM and measured after 72 hrs by CCK-8 method (reference value: 3.4 +/- 0.1 microM); type: functional, cell-based; conditions: SW620/AD300, 72 h
SW620/AD300 [4] = test: Inhibition of colony formation in human SW620/AD300 cells assessed as decrease in colony count at 20 uM measured after 7 days by crystal violet staining based analysis; type: functional, cell-based; conditions: time 7.0 day
SW620/AD300 [5] = test: Inhibition of colony formation in human SW620/AD300 cells assessed as decrease in colony count at 20 uM measured after 7 days in presence of paclitaxel by crystal violet staining based analysis; type: functional, cell-based; conditions: time 7.0 day
SW620/AD300 [6] = test: Induction of cell cycle analysis in human SW620/AD300 cells assessed as increase in accumulation of cells at G2/M phase measured after 24 hrs by flow cytometry analysis; type: functional, cell-based; conditions: dose 5-20 µM
SW620/AD300 [7] = test: Induction of cell cycle analysis in human SW620/AD300 cells assessed as increase in accumulation of cells at G0/G1 phase at 5 to 20 uM measured after 24 hrs by flow cytometry analysis; type: functional, cell-based; conditions: dose 5-20 µM
SW620/AD300 [8] = test: Inhibition of colony formation in human SW620/AD300 cells assessed as decrease in colony count at 5 uM measured after 7 days in presence of paclitaxel by crystal violet staining based analysis; type: functional, cell-based; conditions: time 7.0 day
SW620/AD300 [9] = test: Inhibition of colony formation in human SW620/AD300 cells assessed as decrease in colony count at 1 uM measured after 7 days by crystal violet staining based analysis; type: functional, cell-based; conditions: time 7.0 day

| IC50 (SW620/AD300 [3]) [nM] | SMILES | Activity (SW620/AD300 [1]) | Activity (MDA-MB-453) | Activity (LNCaP C4-2B) | Activity (A549) | Ratio IC50 (SW620/AD300 [2]) | inhibition (SW620/AD300 [4]) | inhibition (SW620/AD300 [5]) | Activity (SW620/AD300 [6]) | Activity (SW620/AD300 [7]) | inhibition (SW620/AD300 [8]) | inhibition (SW620/AD300 [9]) |
| --- | --- | --- | --- | --- | --- | --- | --- | --- | --- | --- | --- | --- |
|  | CC(C)=C/C=C/[C@H](C)[C@H]1CC[C@]2(C)C[C@@H]3C(C)=CC(=O)[C@H]3/C(CO)=C\C[C@@H]12 | inactive | inactive | inactive | inactive |  |  |  |  |  |  |  |
| 250 | COC(OC)/C1=C/[C@H](O)[C@H]2[C@@H]([C@@H](C)CCC=C(C)C)CC[C@]2(C)C[C@@H]2C(C)=CC(=O)[C@@H]12 | inactive | inactive | inactive | inactive | 13 |  |  |  |  |  |  |
|  | C/C1=C/C[C@H]2[C@@H]([C@@H](C)CC/C=C(\C)CO)CC[C@]2(C)C/C=C(\C)CC[C@@H]1O | inactive | inactive | inactive | inactive |  |  |  |  |  |  |  |
|  | CC(C)=CCC[C@H](C)[C@H]1CC[C@]2(C)CC3=C(C(=O)C[C@H]3C)/C(CO)=C\C[C@@H]12 | inactive | inactive | inactive | inactive |  |  |  |  |  |  |  |
|  | C/C1=C\C[C@@]2(C)CC[C@H]([C@@H](C)CC/C=C(\C)C(=O)O)/C2=C/C[C@@]2(C)O[C@@H]2CC1 | inactive | inactive | inactive | inactive |  |  |  |  |  |  |  |
| 50 | CC(C)=CCC[C@H](C)C1=CC[C@]2(C)C[C@@H]3C(C)=CC(=O)[C@H]3/C(CO)=C\C[C@@H]12 | inactive | inactive | inactive | inactive | 72 | inactive | Active | Dose-Dependent Effect | Active | Active |  |
|  | CC(=O)O[C@H]1C(=O)[C@@]2(C)[C@H]([C@H](OC(=O)c3ccccc3)[C@]3(O)C[C@H](OC(=O)[C@H](O)[C@@H](NC(=O)c4ccccc4)c4ccccc4)C(C)=C1C3(C)C)[C@]1(OC(C)=O)CO[C@@H]1C[C@@H]2O |  |  |  |  |  |  |  |  |  |  | inactive |
|  | CC(C)=CCC[C@H](C)[C@H]1CC[C@]2(C)C[C@@H]3C(C)=CC(=O)[C@H]3[C@@H](CO)/C=C\[C@@H]12 | inactive | inactive | inactive | inactive |  |  |  |  |  |  |  |
|  | CC(C)=CCC[C@H](C)C1=CC[C@]2(C)C[C@@H]3C(C)=CC(=O)[C@H]3/C(C=O)=C\C=C\12 | inactive | inactive | inactive | inactive |  |  |  |  |  |  |  |
|  | C/C1=C/C[C@H]2[C@@H]([C@@H](C)CC/C=C(\C)C(=O)O)CC[C@]2(C)C/C=C(\C)CC[C@@H]1O | inactive | inactive | inactive | inactive |  |  |  |  |  |  |  |
| 1000 | CC(C)=CCC[C@H](C)[C@H]1CC[C@]2(C)C[C@@]3(O)[C@H](C)CC(=O)[C@@H]3/C(CO)=C\C[C@@H]12 | inactive | inactive | inactive | inactive | 3 |  |  |  |  |  |  |
| 200 | CC(C)=CC(=O)C[C@H](C)[C@H]1CC[C@]2(C)C[C@@H]3C(C)=CC(=O)[C@H]3/C(CO)=C\C[C@@H]12 | inactive | inactive | inactive | inactive | 17 |  |  |  |  |  |  |
|  | CC(C)=CCC[C@H](C)[C@H]1CC[C@]2(C)C[C@@H]3C(CO)=CC(=O)[C@H]3/C(C)=C\C[C@@H]12 | inactive | inactive | inactive | inactive |  |  |  |  |  |  |  |
|  | C/C(=C\CC[C@](C)(O)[C@H]1CC[C@]2(C)C/C=C(\C)CC/C=C(\C)CC[C@@H]12)CO | inactive | inactive | inactive | inactive |  |  |  |  |  |  |  |
